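Interpolation was linear, between the two tested concentrations surrounding the appropriate level; five concentrations were tested over 48 hours in 96-well plates. TGI: concentration producing complete growth inhibition.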 Bounds are passed on as bounds.

This passage reports TGI results from PubChem BioAssay (NCI).

Among the test systems are 786-0 renal; HCT-116 colon; HCT-15 colon; HT29 colon; KM12 colon; LOX IMVI melanoma; M14 melanoma; MALME-3M melanoma; OVCAR-3 ovarian; OVCAR-4 ovarian; SNB-75 CNS; UACC-257 melanoma; UACC-62 melanoma; UO-31 renal; RXF 393 renal; SF-268 CNS; SK-MEL-28 melanoma.
Common to all, as to test: NCI-60 cell line screen, 48 h

Consider `O/N=C/c1cc2c(cc1Br)OCO2`, for which the TGI with 786-0 renal, in the test with HCT-116 colon, with HCT-15 colon, in the test with HT29 colon, in the test with KM12 colon and with LOX IMVI melanoma was > 100 µM throughout. For the same compound, the TGI in the test on M14 melanoma, with MALME-3M melanoma, with OVCAR-3 ovarian, in the test with OVCAR-4 ovarian, in the test with SNB-75 CNS and in the test with UACC-257 melanoma was > 100 µM each time. The TGI in the test on UACC-62 melanoma and with UO-31 renal was > 100 µM each time.
Turning to `COc1cc(Cl)cc(N(O)C(C)=O)c1OCc1ccccc1`, the TGI in the test with 786-0 renal, in the test on HCT-116 colon, with HCT-15 colon, in the test on HT29 colon, in the test on KM12 colon and in the test with LOX IMVI melanoma was > 100 µM in each case. The TGI in the test on M14 melanoma, in the test with MALME-3M melanoma, with OVCAR-3 ovarian, in the test with OVCAR-4 ovarian, in the test with RXF 393 renal and with SF-268 CNS was > 100 µM throughout. The TGI in the test with SK-MEL-28 melanoma was > 100 µM; with SNB-75 CNS, 76.4 µM; in the test on UACC-257 melanoma, > 100 µM; in the test on UACC-62 melanoma, > 100 µM; with UO-31 renal, > 100 µM.
In the case of `CCC(CC)n1cc(C(=O)NC(=O)NCCCCCOC(=O)CCCCCCCCCCC(=O)OCCCCCNC(=O)NC(=O)c2cn(C(CC)CC)c(=O)[nH]c2=O)c(=O)[nH]c1=O`, the TGI in the test with 786-0 renal, with HCT-116 colon, in the test on HCT-15 colon, in the test with HT29 colon, with KM12 colon and in the test with LOX IMVI melanoma was > 100 µM in each case. Further, the TGI in the test with M14 melanoma, in the test with MALME-3M melanoma, with OVCAR-3 ovarian, with OVCAR-4 ovarian, in the test with RXF 393 renal and with SF-268 CNS was > 100 µM each time. Further, the TGI in the test on SK-MEL-28 melanoma is > 100 µM; with SNB-75 CNS, 53.5 µM; in the test on UACC-257 melanoma, > 100 µM; with UACC-62 melanoma, > 100 µM; with UO-31 renal it was > 100 µM.
Consider `C=CCN(N=O)C(=O)N(CCCC(NC(C)=O)C(=O)NCc1ccccc1)Cc1ccccc1` (centres undefined), for which the TGI with 786-0 renal is > 100 µM; with HCT-15 colon, > 100 µM; with HT29 colon it was 82.4 µM; in the test with KM12 colon it was > 100 µM; with LOX IMVI melanoma, > 100 µM; with M14 melanoma it was > 100 µM. Further, the TGI in the test with MALME-3M melanoma, in the test on OVCAR-3 ovarian, in the test on OVCAR-4 ovarian, in the test on RXF 393 renal, in the test with SF-268 CNS and with SK-MEL-28 melanoma was > 100 µM in each case. Moreover, the TGI in the test with SNB-75 CNS, in the test on UACC-257 melanoma, in the test on UACC-62 melanoma and in the test with UO-31 renal was > 100 µM throughout.
For the compound `CCn1c2ccccc2c2ccc3c(c21)C(=O)c1ccccc1C3=O`, the TGI in the test on 786-0 renal, in the test on HCT-116 colon, with HCT-15 colon, in the test with HT29 colon, with M14 melanoma and in the test with MALME-3M melanoma was > 100 µM each time. For the same compound, the TGI in the test with OVCAR-4 ovarian, in the test with RXF 393 renal, in the test with SF-268 CNS, in the test with SK-MEL-28 melanoma, in the test with SNB-75 CNS and with UACC-257 melanoma was > 100 µM in each case. In addition, the TGI with UACC-62 melanoma and in the test on UO-31 renal was > 100 µM in each case.
On to `C(=Nc1ccc(-c2cc(-c3ccccc3)nc3ccc4ccccc4c23)cc1)c1ccccc1`, for which the TGI was > 100 µM in the test with 786-0 renal; > 100 µM in the test on HCT-116 colon; > 100 µM with HCT-15 colon; 40.3 µM with HT29 colon; 68 µM in the test on KM12 colon; > 100 µM in the test with LOX IMVI melanoma. The TGI with M14 melanoma was 50.4 µM; in the test with MALME-3M melanoma, > 100 µM; with OVCAR-3 ovarian it was 68.9 µM; in the test with OVCAR-4 ovarian it was 13.5 µM; in the test on RXF 393 renal, 47.9 µM; in the test with SF-268 CNS, > 100 µM. Moreover, the TGI in the test with SK-MEL-28 melanoma was > 100 µM; with SNB-75 CNS it was > 100 µM; in the test on UACC-257 melanoma, 92.1 µM; in the test on UACC-62 melanoma, 62.1 µM; with UO-31 renal, 73.1 µM.
For the compound `Cc1cccc(NC(=O)c2cc3cc(N=Nc4ccccc4Cl)ccc3oc2=O)c1`, the TGI in the test with 786-0 renal is > 100 µM; in the test on HCT-116 colon, 57.3 µM; in the test on HCT-15 colon, > 100 µM; in the test with HT29 colon, > 100 µM; with KM12 colon it was 48.4 µM; with LOX IMVI melanoma, 27.4 µM. The TGI was 85.9 µM in the test with M14 melanoma; > 100 µM in the test with MALME-3M melanoma; > 100 µM with OVCAR-3 ovarian; > 100 µM with OVCAR-4 ovarian; 83.2 µM in the test on RXF 393 renal; 84.4 µM in the test on SF-268 CNS. The TGI in the test with SK-MEL-28 melanoma was > 100 µM; in the test on SNB-75 CNS, > 100 µM; with UACC-257 melanoma, > 100 µM; in the test on UACC-62 melanoma, 42.5 µM; with UO-31 renal, 55.7 µM.
`COC(=O)C1C2C=CC(C2)C1(C(=O)OC)S(=O)CC12CCC(CC1O)C2(C)C` (centres undefined): the TGI is > 100 µM with 786-0 renal; > 100 µM with HCT-116 colon; 37.7 µM in the test on HCT-15 colon; > 100 µM in the test on HT29 colon; > 100 µM with KM12 colon; 40 µM in the test with LOX IMVI melanoma. Also, the TGI in the test with M14 melanoma, with MALME-3M melanoma, in the test on OVCAR-3 ovarian, with OVCAR-4 ovarian, in the test on RXF 393 renal and in the test with SF-268 CNS was > 100 µM in each case. For the same compound, the TGI in the test with SK-MEL-28 melanoma, with SNB-75 CNS, in the test on UACC-257 melanoma, in the test on UACC-62 melanoma and in the test with UO-31 renal was > 100 µM throughout.
